# Assay results published in US20250066372A1, “HETEROCYCLIC COMPOUNDS, COMPOSITIONS THEREOF, AND METHODS OF TREATMENT THEREWITH” (BeiGene, Ltd., priority 2022, published 2025).
# Molecular target: CDK4/Cyclin D1 (Homo sapiens (Human), UniProt P11802)
# Experiment: CDK4/Cyclin D1 biochemical assay (TR-FRET)
# Conditions: 1 mM ATP, 0.15 μM Rb (Ser780)-biotin substrate
# CDK4/Cyclin D1, sequence (P11802 whole entry): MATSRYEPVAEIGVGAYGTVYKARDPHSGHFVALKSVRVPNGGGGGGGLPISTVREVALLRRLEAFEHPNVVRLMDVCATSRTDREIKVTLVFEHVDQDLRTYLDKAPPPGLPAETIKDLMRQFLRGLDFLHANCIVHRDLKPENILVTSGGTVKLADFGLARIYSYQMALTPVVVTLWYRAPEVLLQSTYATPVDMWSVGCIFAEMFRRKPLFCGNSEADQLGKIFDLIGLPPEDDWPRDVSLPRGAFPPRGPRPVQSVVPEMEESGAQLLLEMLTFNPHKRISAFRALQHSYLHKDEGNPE
# CDK4/Cyclin D1, sequence (P24385 whole entry partner): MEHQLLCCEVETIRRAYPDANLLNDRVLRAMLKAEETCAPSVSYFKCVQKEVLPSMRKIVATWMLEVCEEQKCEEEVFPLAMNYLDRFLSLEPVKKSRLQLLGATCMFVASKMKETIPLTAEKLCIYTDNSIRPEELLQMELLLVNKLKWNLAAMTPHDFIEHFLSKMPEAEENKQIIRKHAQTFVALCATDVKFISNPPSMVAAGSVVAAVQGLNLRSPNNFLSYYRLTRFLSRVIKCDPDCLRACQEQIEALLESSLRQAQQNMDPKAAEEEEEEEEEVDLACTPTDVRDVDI
row,IC50 [nM],SMILES
1,72,"CN(C)Cc1ccc(-n2c(C(=O)N(C)C)cc3cnc(N[C@@H]4CCOC[C@H]4O)nc32)cc1 [Example 3, 7-(4-((dimethylamino)methyl)phenyl)-2-(((3S,4R)-3-hydroxytetrahydro-2H-pyran-4-yl)amino)-N,N-dimethyl-7H-pyrrolo[2,3-d]pyrimidine-6-carboxamide]"
2,42,"CN(C)C(=O)c1cc2cnc(N[C@@H]3CCOC[C@H]3O)nc2n1-c1ccc2c(c1)CCC2N(C)C (stereo partly drawn) [Example 12, 7-(1-(dimethylamino)-2,3-dihydro-1H-inden-5-yl)-2-(((3S,4R)-3-hydroxytetrahydro-2H-pyran-4-yl)amino)-N,N-dimethyl-7H-pyrrolo[2,3-d]pyrimidine-6-carboxamide]"
3,8.8,"CC(=O)c1c(C)c2cnc(N[C@@H]3CCOC[C@H]3O)nc2n(C2CCCC2)c1=O [Example 2 in WO2020212865, reference compound]"
4,38,"CN(C)C(=O)c1cc2cnc(N[C@@H]3CCOC[C@H]3O)nc2n1-c1ccc2c(c1)C1(CC1)CC2N(C)C (stereo partly drawn) [Example 13, 7-(3′-(dimethylamino)-2′,3′-dihydrospiro[cyclopropane-1,1′-inden]-6′-yl)-2-(((3S,4R)-3-hydroxytetrahydro-2H-pyran-4-yl)amino)-N,N-dimethyl-7H-pyrrolo[2,3-d]pyrimidine-6-carboxamide]"
5,360,"Cc1ccc(-n2c(C(=O)N(C)C)cc3cnc(N[C@@H]4CCOC[C@H]4O)nc32)cc1 [Example 2, 2-(((3S,4R)-3-hydroxytetrahydro-2H-pyran-4-yl)amino)-N,N-dimethyl-7-(p-tolyl)-7H-pyrrolo[2,3-d]pyrimidine-6-carboxamide]"
6,5,"CC(C)n1c(C(C)(C)O)nc2c(F)cc(-c3nc(N[C@@H]4CCOC[C@H]4O)ncc3Cl)cc21 [Example A94 in WO2019207463, reference compound]"
7,51,"CN(C)Cc1ccc(-n2c(C(=O)N(C)C)cc3cnc(N[C@@H]4CCOC[C@H]4O)nc32)cc1F [Example 5, 7-(4-((dimethylamino)methyl)-3-fluorophenyl)-2-(((3S,4R)-3-hydroxytetrahydro-2H-pyran-4-yl)amino)-N,N-dimethyl-7H-pyrrolo[2,3-d]pyrimidine-6-carboxamide]"
8,12,"CN(C)C(=O)c1cc2cnc(N[C@@H]3CCOC[C@H]3O)nc2n1-c1ccc2c(c1)CCCC2N(C)C (stereo partly drawn) [Example 9, 7-(5-(dimethylamino)-5,6,7,8-tetrahydronaphthalen-2-yl)-2-(((3S,4R)-3-hydroxytetrahydro-2H-pyran-4-yl)amino)-N,N-dimethyl-7H-pyrrolo[2,3-d]pyrimidine-6-carboxamide]"
9,9.7,"CN(C)Cc1ccc(-n2c(C(=O)N(C)C)cc3cnc(N[C@@H]4CCOC[C@H]4O)nc32)cc1C1CC1 [Example 4, 7-(3-cyclopropyl-4-((dimethylamino)methyl)phenyl)-2-(((3S,4R)-3-hydroxytetrahydro-2H-pyran-4-yl)amino)-N,N-dimethyl-7H-pyrrolo[2,3-d]pyrimidine-6-carboxamide]"
10,5.9,"CN(C)Cc1ccc(-n2c(C(=O)N(C)C)cc3cnc(N[C@@H]4CCOC[C@H]4O)nc32)cc1C(F)(F)F [Example 7, 7-(4-((dimethylamino)methyl)-3-(trifluoromethyl)phenyl)-2-(((3S,4R)-3-hydroxytetrahydro-2H-pyran-4-yl)amino)-N,N-dimethyl-7H-pyrrolo[2,3-d]pyrimidine-6-carboxamide]"
11,13,"CN(C)C(=O)c1cc2cnc(N[C@@H]3CCOC[C@H]3O)nc2n1-c1ccc2c(c1)C1(CCC2N(C)C)CC1 (stereo partly drawn) [Example 10, 7-(4′-(dimethylamino)-3′,4′-dihydro-2′H-spiro[cyclopropane-1,1′-naphthalen]-7′-yl)-2-(((3S,4R)-3-hydroxytetrahydro-2H-pyran-4-yl)amino)-N,N-dimethyl-7H-pyrrolo[2,3-d]pyrimidine-6-carboxamide]"
12,68,"CN(C)C(=O)c1cc2cnc(N[C@@H]3CCOC[C@H]3O)nc2n1C1CCCC1 [Example 1, 7-cyclopentyl-2-(((3S,4R)-3-hydroxytetrahydro-2H-pyran-4-yl)amino)-N,N-dimethyl-7H-pyrrolo[2,3-d]pyrimidine-6-carboxamide]"
13,2.1,"CN(C)C(=O)c1cc2cnc(N[C@@H]3CCOC[C@H]3O)nc2n1-c1ccc2c(c1)C(F)(F)CCC2N(C)C (stereo partly drawn) [Example 11, 7-(5-(dimethylamino)-8,8-difluoro-5,6,7,8-tetrahydronaphthalen-2-yl)-2-(((3S,4R)-3-hydroxytetrahydro-2H-pyran-4-yl)amino)-N,N-dimethyl-7H-pyrrolo[2,3-d]pyrimidine-6-carboxamide]"
14,22,"CN(C)Cc1ccc(-n2c(C(=O)N(C)C)cc3cnc(N[C@@H]4CCOC[C@H]4O)nc32)cc1Cl [Example 6, 7-(3-chloro-4-((dimethylamino)methyl)phenyl)-2-(((3S,4R)-3-hydroxytetrahydro-2H-pyran-4-yl)amino)-N,N-dimethyl-7H-pyrrolo[2,3-d]pyrimidine-6-carboxamide]"
15,143,"CN1CCc2cc(-n3c(C(=O)N(C)C)cc4cnc(N[C@@H]5CCOC[C@H]5O)nc43)ccc2C1 [Example 8, 2-(((3S,4R)-3-hydroxytetrahydro-2H-pyran-4-yl)amino)-N,N-dimethyl-7-(2-methyl-1,2,3,4-tetrahydroisoquinolin-6-yl)-7H-pyrrolo[2,3-d]pyrimidine-6-carboxamide]"
